Earlier results in US9167842B2, “Functional food preparation and use thereof” (priority 2010, dated 2015).
Read-outs that look alike come from different tables or passages of the source.

What was measured:
[1] = oral, 32 hypercholesterolemic patients, three months
[2] = daily folic acid supplement

SMILES | reduction of LDL cholesterol [1] [%] | reduction of plasma cholesterol [1] [%] | reduction of triglycerides [1] [%] | reduction of homocysteine [2] | reduction of homocysteine ([2]; dose doubled)
COc1ccc2cc3[n+](cc2c1OC)CCc1cc2c(cc1-3)OCO2 [berberine] | 25 | 29 | 35 | – | –
Nc1nc2ncc(CNc3ccc(C(=O)N[C@@H](CCC(=O)O)C(=O)O)cc3)nc2c(=O)[nH]1 [folic acid] | – | – | – | about 60% | about 90%
